Biological target: human TREK-1 (Homo sapiens (Human), UniProt O95069)
Assay: TREK-1 Thallium (Tl+) flux assay
Format: cell-based
Details: CHO-K1 cells stably expressing human TREK-1

Sequence of human TREK-1 (O95069 whole entry): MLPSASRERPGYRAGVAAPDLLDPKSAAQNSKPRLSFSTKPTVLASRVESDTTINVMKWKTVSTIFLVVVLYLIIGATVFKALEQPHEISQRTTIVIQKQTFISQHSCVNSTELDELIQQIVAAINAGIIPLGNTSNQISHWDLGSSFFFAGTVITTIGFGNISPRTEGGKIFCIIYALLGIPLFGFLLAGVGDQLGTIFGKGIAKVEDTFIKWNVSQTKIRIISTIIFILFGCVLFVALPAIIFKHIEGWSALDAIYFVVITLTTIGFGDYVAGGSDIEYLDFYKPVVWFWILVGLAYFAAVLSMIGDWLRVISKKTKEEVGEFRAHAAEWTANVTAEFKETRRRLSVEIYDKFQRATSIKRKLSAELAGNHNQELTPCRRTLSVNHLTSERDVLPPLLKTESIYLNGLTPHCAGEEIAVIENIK

| IC50 [nM] | Structure (SMILES) |
| --- | --- |
| 580 | Cc1cc(C#Cc2ccccc2)cnc1N1Cc2ccc(NC(=O)OC(C)(C)C)cc2C1=O [Compound 44, tert-butyl N-[2-[3-methyl-5-(2-phenylethynyl)-2-pyridyl]-3-oxo-isoindolin-5-yl]carbamate] |
| 870 | Cc1ccc(NC(=O)OC(C)(C)C)cc1C(=O)Nc1ncc(C#Cc2ccccc2)cc1C [Compound 46, tert-butyl N-[4-methyl-3-[[3-methyl-5-(2-phenylethynyl)-2-pyridyl]carbamoyl]phenyl]carbamate] |
| 950 | Cc1cc(C#Cc2ccccc2)nc(C)c1NC(=O)c1cc(NC(=O)OC(C)(C)C)ccc1Cl [Compound 48, tert-butyl N-[4-chloro-3-[[2,4-dimethyl-6-(2-phenylethynyl)-3-pyridyl]carbamoyl]phenyl]carbamate] |
| 1090 | Cc1cc(C#Cc2cccc(F)c2)nc(C)c1NC(=O)c1cc(NC(=O)[C@H]2C[C@@H]2C)ccc1Cl [Compound 49, 2-chloro-N-[6-[2-(3-fluorophenyl)ethynyl]-2,4-dimethyl-3-pyridyl]-5-[[(1S,2S)-2-methylcyclopropanecarbonyl]amino] benzamide] |
| 1080 | Cc1cc(C#Cc2ccccc2)cnc1NC(=O)c1cc(NC(=O)OC(C)(C)C)ccc1F [Compound 50, tert-butyl N-[4-fluoro-3-[[3-methyl-5-(2-phenylethynyl)-2-pyridyl]carbamoyl]phenyl]carbamate] |
| 2170 | Cc1cc(C#Cc2ccccc2)cnc1NC(=O)c1cc(NC(=O)OC(C)(C)C)cnc1Cl [Compound 52, tert-butyl N-[6-chloro-5-[[3-methyl-5-(2-phenylethynyl)-2-pyridyl]carbamoyl]-3-pyridyl]carbamate] |
| 810 | Cc1cc(C#Cc2ccccc2)cnc1NC(=O)c1cc(C#N)ccc1Cl [Compound 53, 2-chloro-5-cyano-N-(3-methyl-5-(phenylethynyl)pyridin-2-yl)benzamide] |
| 80 | O=C(Nc1ncc(C#Cc2ccccc2)cc1F)c1cc(-c2noc(C3CCOC3)n2)ccc1Cl (stereo not drawn) [Compound 54] |
| 100 | O=C(Nc1ncc(C#Cc2ccccc2)cc1F)c1cc(-c2cnn(C3CCOCC3)c2)ccc1Cl [Compound 55, 2-chloro-N-[3-fluoro-5-(2-phenylethynyl)-2-pyridyl]-5-(1-tetrahydropyran-4ylpyrazol-4-yl)benzamide] |
| 110 | O=C(Nc1ncc(C#Cc2ccccc2)cc1F)c1cc(-c2cnn(C3COC3)c2)ccc1Cl [Compound 56, 2-chloro-N-[3-fluoro-5-(2-phenylethynyl)-2-pyridyl]-5-[1-(oxetan-3-yl)pyrazol-4-yl]benzamide] |
| 130 | Cc1cc(C#Cc2ccccc2)cnc1NC(=O)c1cc(-c2nc(C3CC3)no2)ccc1Cl [Compound 57, 2-chloro-5-(3-cyclopropyl-1,2,4-oxadiazol-5-yl)-N-[3-methyl-5-(2-phenylethynyl)-2-pyridyl]benzamide] |
| 130 | Cc1cc(C#Cc2ccccc2)cnc1NC(=O)c1cc(-c2cnn(C3COC3)c2)ccc1Cl [Compound 58, 2-chloro-N-[3-methyl-5-(2-phenylethynyl)-2-pyridyl]-5-[1-(oxetan-3-yl)pyrazol-4-yl]benzamide] |
| 130 | Cn1cc(-c2ccc(Cl)c(C(=O)Nc3ncc(C#Cc4ccccc4)cc3F)c2)cn1 [Compound 59, 2-chloro-N-[3-fluoro-5-(2-phenylethynyl)-2-pyridyl]-5-(1-methylpyrazol-4-yl)benzamide] |
| 140 | Cc1cc(C#Cc2ccccc2)cnc1NC(=O)c1cc(C(=O)N2CC(C)(C)C2)ccc1Cl [Compound 60, 2-chloro-5-(3,3-dimethylazetidine-1-carbonyl)-N-[3-methyl-5-(2-phenylethynyl)-2-pyridyl]benzamide] |
| 160 | Cc1cc(C#Cc2ccccc2)cnc1NC(=O)c1cc(-c2ccnn2C)ccc1Cl [Compound 61, 2-chloro-N-[3-methyl-5-(2-phenylethynyl)-2-pyridyl]-5-(2-methylpyrazol-3-yl)benzamide] |

— patent publication US20240190824A1, “INHIBITORS OF TREK (TWIK RELATED K+ CHANNELS) CHANNEL FUNCTION” (ONO PHARMACEUTICAL CO., LTD., priority 2019, published 2024)
